# Experimental data from patent US10206907B2, “Compounds useful for the treatment of degenerative and inflammatory diseases” (GALAPAGOS NV, priority 2008, dated 2019).
# Columns and labels:
# [1] = target: Recombinant human JAK3 catalytic domain (Homo sapiens (Human), UniProt P52333); assay: JAK3 inhibition assay; assay type: biochemical; conditions: semi-quantitative score
# Procedure: Plates were washed 6 times with 300 μL per well of a 75 mM phosphoric acid solution and the bottom of the plates was sealed. 40 μL/well of Microscint-20 was added, the top of the plates was sealed and readout was performed using the Topcount (Perkin Elmer). Kinase activity was calculated by subtracting counts per minute (cpm) obtained in the presence of a positive control inhibitor (10 μM staurosporine) from cpm obtained in the presence of vehicle. The ability of a test compound to inhibit this activity was determined as: Percentage inhibition=((cpm determined for sample with test compound present−cpm determined for sample with positive control inhibitor) divided by (cpm determined in the presence of vehicle−cpm determined for sample with positive control inhibitor))*100%.
# Dose dilution series were prepared for the compounds enabling the testing of dose-response effects in the JAK3 assay and the calculation of the IC50 for each compound.
# [2] = target: Recombinant human JAK1 catalytic domain (Homo sapiens (Human), UniProt P23458); assay: JAK1 inhibition assay; assay type: biochemical; conditions: semi-quantitative score
# Recombinant human JAK1 catalytic domain, sequence (P23458 850-1154): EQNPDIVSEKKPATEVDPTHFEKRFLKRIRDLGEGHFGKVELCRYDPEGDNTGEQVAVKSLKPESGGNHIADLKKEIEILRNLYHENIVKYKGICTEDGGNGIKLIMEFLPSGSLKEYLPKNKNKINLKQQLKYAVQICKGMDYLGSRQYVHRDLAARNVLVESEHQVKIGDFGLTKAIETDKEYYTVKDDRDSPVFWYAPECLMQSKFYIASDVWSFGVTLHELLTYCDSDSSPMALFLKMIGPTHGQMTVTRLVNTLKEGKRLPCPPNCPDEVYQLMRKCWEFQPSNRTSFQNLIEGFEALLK
# How it was run: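 Radiometric assay read by scintillation counting after phosphoric-acid washes. Percent inhibition calculated from cpm relative to vehicle and 10 μM staurosporine control. IC50 derived from compound dose-dilution series.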
# [3] = target: Recombinant human JAK2 catalytic domain (Homo sapiens (Human), UniProt O60674); assay: JAK2 inhibition assay; assay type: biochemical; conditions: semi-quantitative score
# Recombinant human JAK2 catalytic domain, sequence (O60674 808-1132): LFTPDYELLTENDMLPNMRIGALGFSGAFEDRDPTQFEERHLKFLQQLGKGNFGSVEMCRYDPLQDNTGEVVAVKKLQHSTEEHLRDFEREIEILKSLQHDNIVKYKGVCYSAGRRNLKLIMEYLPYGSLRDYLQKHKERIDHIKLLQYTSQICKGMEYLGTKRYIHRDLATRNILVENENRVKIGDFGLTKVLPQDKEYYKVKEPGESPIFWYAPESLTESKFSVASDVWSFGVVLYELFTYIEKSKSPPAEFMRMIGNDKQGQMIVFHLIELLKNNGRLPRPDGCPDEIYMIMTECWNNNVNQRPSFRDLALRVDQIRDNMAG
# How it was run: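 Radiometric kinase reactions ran for 90 min at 30 °C and were stopped with phosphoric acid, then washed and counted by scintillation. Percent inhibition was set relative to vehicle and to 10 μM staurosporine background. IC50 was derived from dose-dilution series.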
# [4] = Microsomal stability, rat liver microsomes; assay type: in vitro ADME; conditions: percentage of compound remaining after 60 minutes, 3 μM compound
# How it was run: (§1)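 Compound was incubated with liver microsomes plus an NADP+/glucose-6-phosphate/G6PDH/MgCl2 regenerating system at 37°C for 1 h. Reactions were stopped 1:1 with MeOH or ACN and analysed by LCMS.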
# [5] = tested on: JAK-STAT signalling in HeLa cells; assay: JAK-STAT signalling assay (OSM-triggered pSTAT1(2)-luciferase reporter in HeLa cells); assay type: cell-based; conditions: Homo sapiens; HeLa cells, OSM-triggered pSTAT1(2)-luciferase reporter; read-out: STAT signalling EC50
# How it was run: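 HeLa cells transiently transfected with pSTAT1(2)-luciferase reporter plus LacZ internal control, incubated overnight at 37 °C, 10% CO2, then OSM-stimulated with compound. Luciferase read by Steadylite luminescence and normalised to β-galactosidase (ONPG); percent inhibition from controls, EC50 from dose-response.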
# MMP13 in SW1353 cells = assay: OSM/IL-1β signaling assay (MMP13 levels in SW1353 cells); assay type: cell-based; conditions: Homo sapiens; SW1353 cells, OSM and IL-1β triggered, MMP13 levels 48 hours after triggering; read-out: MMP13 EC50;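 also: secreted MMP13 captured by antibody, activated with APMA and its activity read by fluorescence, inhibition scaled between vehicle-treated triggered wells (0%) and untriggered wells (100%)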
# Procedure: The cells were seeded in 96 well plates at 15,000 cells/well in a volume of 120 μL DMEM (Invitrogen) containing 10% (v/v) FBS and 1% penicillin/streptomycin (InVitrogen) incubated at 37° C. […] MMP13 activity was measured using an antibody capture activity assay. […] Next the wells were washed twice with PBS+0.05% Tween followed by MMP13 activation by addition of 35 μL of a 1.5 mM 4-Aminophenylmercuric acetate (APMA) (Sigma, A9563) solution and incubation at 37° C. for 1 hour. […] Percentage inhibition=((fluorescence determined in the presence of vehicle−fluorescence determined for sample with test compound present) divided by (fluorescence determined in the presence of vehicle−fluorescence determined for sample without trigger))*100%.
# [6] = Microsomal stability, human liver microsomes; assay type: in vitro ADME; conditions: percentage of compound remaining after 60 minutes, 3 μM compound
# How it was run: as §1
# [7] = Caco2 permeability (bi-directional); assay type: in vitro ADME, human; conditions: human, pH 7.4; for Papp A→B at 1 h, 10 µM: Caco-2, apical to basolateral, read-out: Papp (A2B); for efflux ratio at 1 h, 10 µM: Caco-2, ratio of PappB>A/PappA>B
# Procedure: Bi-directional Caco-2 assays were performed as described below.
# 2×10^5 cells/well were seeded in plating medium consisting of DMEM+GlutaMAXI+1% NEAA+10% FBS (FetalClone II)+1% Pen/Strep. The medium was changed every 2-3 days.
# 50 μM Lucifer Yellow (Sigma) was added to the donor buffer in all wells to assess integrity of the cell layers by monitoring Lucifer Yellow permeation. As Lucifer Yellow (LY) cannot freely permeate lipophilic barriers, a high degree of LY transport indicates poor integrity of the cell layer.
# After a 1 hour incubation at 37° C. while shaking at an orbital shaker at 150 rpm, 70 μL aliquots were taken from both apical (A) and basal (B) chambers and added to 100 μL1 50:50 acetonitrile:water solution containing analytical internal standard (0.5 μM carbamazepine) in a 96 well plate.
# Concentrations of compound in the samples were measured by high performance liquid-chromatography/mass spectroscopy (LC-MS/MS).
# The Efflux ratios, as an indication of active efflux from the apical cell surface, were calculated using the ratio of PappB>A/PappA>B.
# The following assay acceptance criteria were used:
# Lucifer yellow permeability: ≤100 nm/s
# Recombinant human JAK3 catalytic domain, sequence (P52333 781-1124): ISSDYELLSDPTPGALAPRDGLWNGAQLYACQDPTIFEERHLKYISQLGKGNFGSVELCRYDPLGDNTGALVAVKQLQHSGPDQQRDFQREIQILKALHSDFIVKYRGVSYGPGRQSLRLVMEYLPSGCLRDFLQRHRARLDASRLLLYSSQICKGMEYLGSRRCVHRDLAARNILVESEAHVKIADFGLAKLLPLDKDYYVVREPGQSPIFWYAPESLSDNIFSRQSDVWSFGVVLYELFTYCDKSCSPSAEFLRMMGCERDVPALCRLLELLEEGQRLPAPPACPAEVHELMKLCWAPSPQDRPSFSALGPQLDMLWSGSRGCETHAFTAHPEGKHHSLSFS
SMILES,IC50 [1] [nM],IC50 [2] [nM],IC50 [3] [nM],Microsomal Stability Rat (%) [4],EC50 [5] [nM],EC50 (MMP13 in SW1353 cells) [nM],Microsomal Stability Human (%) [6],"Papp A→B at 1 h, 10 µM [7] [×10⁻⁶ cm/s]","efflux ratio at 1 h, 10 µM [7]"
"O=C(Nc1nc2cccc(-c3ccc(N4CCCCC4)nc3)n2n1)C1CC1 [Compound 3, N-(5-(6-(piperidin-1-yl)pyridin-3-yl)-[1,2,4]triazolo[1,5-a]pyridin-2-yl)cyclopropanecarboxamide]",> 1000,101 to 500,> 1000,,,,,,
"O=C(c1ccccc1)c1ccc(-c2cccc3nc(NC(=O)C4CC4)nn23)cc1 [Compound 10, N-(5-(4-benzoylphenyl)-[1,2,4]triazolo[1,5-a]pyridin-2-yl)cyclopropanecarboxamide]",> 1000,< 100,101 to 500,** (** 26-50),> 1000,> 1000,**** (**** 76-100),,
"O=C(Nc1nc2cccc(-c3ccc(C(=O)N4CCCC4)cc3)n2n1)C1CC1 [Compound 19, N-(5-(4-(pyrrolidine-1-carbonyl)phenyl)-[1,2,4]triazolo[1,5-a]pyridin-2-yl)cyclopropanecarboxamide]",> 1000,< 100,101 to 500,*** (*** 51-75),> 1000,> 1000,**** (**** 76-100),,
"CN(C(=O)c1ccc(-c2cccc3nc(NC(=O)C4CC4)nn23)cc1)c1ccccc1 [Compound 30, 4-(2-(cyclopropanecarboxamido)-[1,2.4]triazolo[1,5-a]pyridin-5-yl)-N-methyl-N-phenylbenzamide]",> 1000,< 100,< 100,* (* 0-25),501 to 1000,> 1000,* (* 0-25),,
"CN1CCN(C(=O)c2ccc(-c3cccc4nc(NC(=O)C5CC5)nn34)cc2)CC1 [Compound 71, N-(5-(4-(4-methylpiperazine-1-carbonyl)phenyl)-[1,2,4]triazolo[1,5-a]pyridin-2-yl)cyclopropanecarboxamide]",> 1000,< 100,,**** (**** 76-100),> 1000,> 1000,* (* 0-25),,
"O=C(Nc1nc2cccc(-c3ccc(NS(=O)(=O)Cc4ccccc4)cc3)n2n1)C1CC1 [Compound 77, N-(5-(4-(phenylmethylsulfonamido)phenyl)-[1,2,4]triazolo[1,5-a]pyridin-2-yl)cyclopropanecarboxamide]",> 1000,< 100,101 to 500,** (** 26-50),> 1000,1 to 500,** (** 26-50),,
"CCCc1ccc(S(=O)(=O)Nc2ccc(-c3cccc4nc(NC(=O)C5CC5)nn34)cc2)cc1 [Compound 85, N-(5-(4-(4-propylphenylsulfonamido)phenyl)-[1,2,4]triazolo[1,5-a]pyridin-2-yl)cyclopropanecarboxamide]",> 1000,< 100,101 to 500,* (* 0-25),> 1000,> 1000,* (* 0-25),,
"O=C(Nc1nc2cccc(-c3ccc(NS(=O)(=O)CCc4cccc(F)c4)cc3)n2n1)C1CC1 [Compound 88, N-(5-(4-(2-(3-fluorophenyl)ethylsulfonamido)phenyl)-[1,2,4]triazolo[l,5-a]pyridin-2-yl)cyclopropanecarboxamide]",> 1000,< 100,101 to 500,* (* 0-25),> 1000,> 1000,* (* 0-25),,
"CC(=O)Nc1ccc(COc2ccc(-c3cccc4nc(NC(=O)C5CC5)nn34)cc2)cc1 [Compound 92, N-(5-(4-(4-acetamidobenzyloxy)phenyl)-[1,2,4]triazolo[1,5-a]pyridin-2-yl)cyclopropanecarboxamide]",501 to 1000,< 100,101 to 500,* (* 0-25),,> 1000,** (** 26-50),,
"CC(Oc1ccc(-c2cccc3nc(NC(=O)C4CC4)nn23)cc1)c1ccccn1 (stereo not drawn) [Compound 189, N-(5-(4-(1-(pyridin-2-yl)ethoxy)phenyl)-[1,2,4]triazolo[1,5-a]pyridin-2-yl)cyclopropanecarboxamide]",501 to 1000,< 100,,** (** 26-50),101 to 500,> 1000,** (** 26-50),,
"Cn1cnc(COc2ccc(-c3cccc4nc(NC(=O)C5CC5)nn34)cc2)n1 [Compound 199, Cyclopropanecarboxylic acid {5-[4-(1-methyl-1H-[1,2,4]triazol-3-ylmethoxy)-phenyl]-[1,2,4]triazolo[1,5-a]pyridin-2-yl}-amide]",,< 100,101 to 500,**** (**** 76-100),> 1000,> 1000,**** (**** 76-100),4.53,8.83
"O=C(Nc1nc2cccc(-c3ccc(C(=O)N4CCC(O)CC4)cc3)n2n1)C1CC1 [Compound 209, Cyclopropanecarboxylic acid {5-[4-(4-hydroxy-piperidine-1-carbonyl)-phenyl]-[1,2,4]triazolo[1,5-a]pyridin-2-yl}-amide]",,< 100,101 to 500,**** (**** 76-100),> 1000,> 1000,**** (**** 76-100),0.5,36
"N#CC1CCN(C(=O)c2ccc(-c3cccc4nc(NC(=O)C5CC5)nn34)cc2)CC1 [Compound 210, Cyclopropanecarboxylic acid {5-[4-(4-cyano-piperidine-1-carbonyl)-phenyl]-[1,2,4]triazolo[1,5-a]pyridin-2-yl)-amide]",,< 100,101 to 500,**** (**** 76-100),> 1000,1 to 500,**** (**** 76-100),0.45,76.2
"O=C(Cc1ccc(-c2cccc3nc(NC(=O)C4CC4)nn23)cc1)Nc1cccnc1 [Compound 316, Cyclopropanecarboxylic acid {5-[4-(pyridin-3-ylcarbamoylmethyl)-phenyl)-[1,2,4]triazolo[1,5-a]pyridin-2-yl}-amide]",,< 100,101 to 500,**** (**** 76-100),> 1000,> 1000,*** (*** 51-75),0.3,104
"N#Cc1ccc(COC2CN(C(=O)c3ccc(-c4cccc5nc(NC(=O)C6CC6)nn45)cc3)C2)cc1 [Compound 325, Cyclopropanecarboxylic acid (5-{4-[3-(4-cyano-benzyloxy)-azetidine-1-carbonyl]-phenyl}-[1,2,4]triazolo[1,5-a]pyridin-2-yl)-amide]",,< 100,101 to 500,*** (*** 51-75),501 to 1000,501 to 1000,*** (*** 51-75),3.2,
